The text below walks through data of patent EP3095787A1, “[…] ACTIVE COMPOUNDS AS DAG-LIPASE INHIBITORS” (Universiteit Leiden, priority 2015, dated 2016).

The target of one experiment is T1, DAGL-β (Mus musculus, UniProt Q91WC9).
T1 construct: from tissue; host or cells: mouse spleen membrane proteome
T1 sequence (Q91WC9 1-669): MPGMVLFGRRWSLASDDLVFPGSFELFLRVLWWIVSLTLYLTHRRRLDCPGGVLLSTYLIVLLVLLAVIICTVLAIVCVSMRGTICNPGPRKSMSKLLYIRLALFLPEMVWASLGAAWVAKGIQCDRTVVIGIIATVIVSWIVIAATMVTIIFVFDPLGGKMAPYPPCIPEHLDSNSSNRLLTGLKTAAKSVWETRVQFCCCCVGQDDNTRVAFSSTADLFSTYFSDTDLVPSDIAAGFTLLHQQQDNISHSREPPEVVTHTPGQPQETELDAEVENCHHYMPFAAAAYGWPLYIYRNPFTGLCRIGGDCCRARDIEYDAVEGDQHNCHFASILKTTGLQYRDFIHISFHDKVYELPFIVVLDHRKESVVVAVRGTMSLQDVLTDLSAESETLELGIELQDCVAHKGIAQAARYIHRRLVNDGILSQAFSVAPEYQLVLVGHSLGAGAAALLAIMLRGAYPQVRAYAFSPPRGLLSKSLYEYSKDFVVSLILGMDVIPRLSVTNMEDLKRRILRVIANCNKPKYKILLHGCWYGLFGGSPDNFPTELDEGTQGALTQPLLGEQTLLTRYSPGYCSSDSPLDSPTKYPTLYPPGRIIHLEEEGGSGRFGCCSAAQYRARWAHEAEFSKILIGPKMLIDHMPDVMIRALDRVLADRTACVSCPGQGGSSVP
As to the kind of experiment: Competitive ABPP with MB064 in mouse spleen membrane proteome. Type of experiment: biochemical. The settings on record: 10 µM compound, MB064 1.0 µM.

Another experiment concerns the target T2, hDAGL-β (Homo sapiens, UniProt Q8NCG7).
T2 sequence (Q8NCG7 1-672): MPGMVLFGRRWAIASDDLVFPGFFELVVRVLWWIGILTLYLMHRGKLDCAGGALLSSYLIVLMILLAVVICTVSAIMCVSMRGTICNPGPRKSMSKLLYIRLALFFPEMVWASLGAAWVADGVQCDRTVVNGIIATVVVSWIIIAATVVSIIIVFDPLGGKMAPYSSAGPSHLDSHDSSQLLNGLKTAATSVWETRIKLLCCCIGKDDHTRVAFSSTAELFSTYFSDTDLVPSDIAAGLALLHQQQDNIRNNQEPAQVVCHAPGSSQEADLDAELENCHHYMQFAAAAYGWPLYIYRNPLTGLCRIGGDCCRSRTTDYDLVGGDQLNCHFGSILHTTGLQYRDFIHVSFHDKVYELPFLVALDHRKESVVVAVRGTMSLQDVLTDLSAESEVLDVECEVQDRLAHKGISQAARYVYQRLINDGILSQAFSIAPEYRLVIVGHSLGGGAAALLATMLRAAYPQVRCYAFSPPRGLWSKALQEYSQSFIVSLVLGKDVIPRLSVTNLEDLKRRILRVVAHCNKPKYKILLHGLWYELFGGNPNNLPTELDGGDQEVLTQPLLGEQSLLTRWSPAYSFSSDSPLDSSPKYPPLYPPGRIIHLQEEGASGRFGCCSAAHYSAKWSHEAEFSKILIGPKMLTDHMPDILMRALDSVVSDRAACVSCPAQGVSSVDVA
Kind of experiment: Competitive ABPP with MB064 on membranes of hDAGL-β transfected HEK293 cells. The class given is biochemical. More on the design: FLAG; expressed in transfected cells; host or cells: HEK293, membranes. The settings on record: n=3, read-out: pIC50 of hDAGL-β labeling (converted). The procedure: In view of the high homology between DAGL-α and DAGL-β the inventors assesed the activity of compound 25 also on native DAGL-β. To this end, it was tested whether the ABP probe MB064 was also able to label DAGL-β. MB064 was incubated with membranes from mock and hDAGL-β transfected HEK293 cells. MB064 was able to label a protein at the expected molecular weight of DAGL-β, which was not present in the control membranes, or in S443A-hDAGL-β transfected cells, in which the catalytic serine is replaced by alanine using site-directed mutagenesis (Figure 1 F). Thus, the tailor-made probe can also detect DAGL-β.

In a further experiment the target is T3, recombinant human MAGL (Homo sapiens, UniProt Q99685).
T3 construct: expressed in transfected cells; membranes overexpressing MAGL
T3 sequence (Q99685 1-303): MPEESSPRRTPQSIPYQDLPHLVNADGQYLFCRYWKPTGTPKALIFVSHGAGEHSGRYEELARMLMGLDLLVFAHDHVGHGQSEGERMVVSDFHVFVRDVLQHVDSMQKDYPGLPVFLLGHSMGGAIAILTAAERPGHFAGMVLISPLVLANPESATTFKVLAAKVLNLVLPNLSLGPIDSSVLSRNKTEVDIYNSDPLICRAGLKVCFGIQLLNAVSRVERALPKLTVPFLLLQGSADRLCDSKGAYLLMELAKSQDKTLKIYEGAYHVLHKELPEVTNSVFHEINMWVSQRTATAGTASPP
Kind of experiment: MAGL assay (glycerol detection, 2-AG as substrate). Type of experiment: biochemical. An excerpt: This methodology allows for a more accurate quantification avoiding band overlap (as observed with gel-based assay) and allows screening over a broader range of specified serine hydrolases. Equal isotopic labeling and detection of light and medium peptides from proteins targeted by both ABPs (Figure 2G) were validated. Next, to investigate the selectivity of inventive compound 25 in this chemoproteomic assay was set out. […] In addition, the inventors tested compound 25 in biochemical assays using recombinant human MAGL and in a cannabinoid CB1 receptor radioligand displacement assay. A significant interaction ([…]) with these proteins of the endocannabinoid system could not be found. The CB1 displacement assays were performed as described below.
MAGL assay was performed as described below. Standard assays were performed under similar conditions as for the glycerol detection besed DAGL-α activity assay , but at a final protein concentration of 1.5 µg/mL (0.3 µg MAGL-overexpressing membranes per well) and with 2-arachidonoylglycerol (2-AG) as the substrate. 2-AG was directly added from a stock solution in acetonitrile and no Triton X-100 was added. Fluorescence was measured in 5 min intervals for 60 min. Final assay concentrations: 0.2 U/mL GK, GPO and HRP, 0.125 mM ATP, 10 µM Amplifu™Red, 25 µM 2-AG, 5% DMSO, 0.5% ACN in a total volume of 200 µL.

A further experiment has as its system human PC3 cells. Kind of experiment: Lipidomics in PC3 cells. The settings on record: 4h at 37 °C in serum free medium. The class given is cell-based. The procedure: To test the activity of inventive compound 25 in a human cell line, human PC3 cells (prostate cancer cell line) were used. The protocol for lipodomics in PC3 cells is given below. Before inhibitor treatment, the culture medium was removed and the cells were washed with warm (37 °C) serum free medium (3x). The cells were treated with vehicle (DMSO) or inhibitor for 4h at 37 °C in serum free medium. After 4h of incubation medium was removed and the cells were washed with cold (4°C) DPBS (3x) and subsequently suspended in DPBS and pelleted. The cell pellet metabolome was extracted and by MeOH/CHCl3 extraction and analysed by LCMS/MS of a triple quad mass spectometer (agilent). The concentration of the lipids was determined by comparison with spiked deuterated standards of the lipd species. […] This may indicate that downstream metabolic pathways of 2-AG signaling are also affected and that the biosynthesis of 2-AG is the rate-limiting step.

Entries after “also recorded” stand apart in the source; their conditions may differ. Where only a bound is given, the exact number is not on record here.

What is called Ki is the equilibrium dissociation constant of an inhibitor or competing ligand from its target. As for `Cc1ccc(-c2cnc3nc(C(=O)CCCCCc4ccccc4)oc3c2)cc1` [Compound 25, 1-(6-(p-Tolyl)oxazolo[4,5-b]pyridin-2-yl)-6-phenylhexan-1-one], the “Native DAGL-β activity (labeling by MB064)” value at DAGL-β is reported as “can block labeling of endogenously expressed DAGL-β; also recorded: could also be inhibited”. Also, the IC50 at hDAGL-β was 39.8 nM. Further, on recombinant human MAGL, the inhibitory constant (Ki) is more than 10000 nM. For the same molecule, in the experiment with human PC3 cells, the 2-AG levels result is on record as “reduced 2-AG levels”, the arachidonic acid levels entry is reported as “reduced” and the “substrate levels of DAGL” value is listed as “no change”.
